Data as given in ChEMBL document CHEMBL1146233, “Modification of the ceramide moiety of isoglobotrihexosylceramide on its agonist activity in stimulation of invariant natural killer T cells” (J Med Chem, 2007).
The source made the active and inactive calls. No cut-off for these calls is given here.

Experiments:
iNKT [1] = assay: Stimulation of hCD1d-restricted human iNKT cells assessed as IFN-gamma release at 10 ng/mL by ELISA; format: functional, cell-based
iNKT [2] = assay: Stimulation of hCD1d-restricted human iNKT cells assessed as IL4 release at 10 ng/mL by ELISA; format: functional, cell-based
[3] = Binding affinity to T cell receptor; format: cell-based, Homo sapiens

## CCCCCCCCCCCCCCCCCCCCCCCCCC(=O)N[C@@H](CO[C@H]1O[C@H](CO)[C@H](O)[C@H](O)[C@H]1O)[C@H](O)[C@H](O)CCCCCCCCCCCCCC [RGI-7000]
iNKT [1]
  Activity: Active
iNKT [2]
  Activity: Active
[3]
  Kd: 350 nM
